Experimental data from publication PMC11818225, “Multifaceted Sulfonamide-Derived Thiosemicarbazones: Combining Metal Chelation and Carbonic Anhydrases Inhibition in Anticancer Therapy” (International Journal of Molecular Sciences, 2025).

Experiments:
[1] = tested on: HBL-100 (breast); test: Antiproliferative SBR assay (NCI protocol), HBL-100; format: cell-based, human; conditions: 48 h exposure, n = 3, mean ± SD
Excerpt: (§1) The latter two represent multidrug-resistant cell lines.

[2] = tested on: WiDr (colon); test: Antiproliferative SBR assay (NCI protocol), WiDr; format: cell-based, human; conditions: 48 h exposure, n = 3, mean ± SD, multidrug-resistant line
Excerpt: as §1

[3] = tested on: SW1573 (non-small cell lung)
Experimental: The potential antiproliferative activity of sulfonamides synthesized in this study was evaluated in vitro using the SBR assay, following the US NCI protocol. A panel of six tumor cell lines was employed: A549 (non-small cell lung), HBL-100 (breast), HeLa (cervix), SW1573 (non-small cell lung), T-47D (breast), and WiDr (colon). The latter two represent multidrug-resistant cell lines.
Cells were maintained in culture in 60 mm cell culture dishes in growth medium (10 mL) and passaged twice weekly.
The antiproliferative activity of compounds was tested using our implementation of the protocol of the National Cancer Institute (NCI) of the USA. The following seeding densities (cells per well) were used: 2500 (A549, HBL-100, HeLa, and SW1573) and 5000 (T-47D and WiDr). Stock solutions of inhibitors (40 mM) were prepared in pure DMSO (400 times the maximum test concentration).

[4] = tested on: T-47D (breast); test: Antiproliferative SBR assay (NCI protocol), T-47D; format: cell-based, human; conditions: 48 h exposure, n = 3, mean ± SD, multidrug-resistant line
Excerpt: as §1

[5] = tested on: HeLa (cervix); test: Antiproliferative SBR assay (NCI protocol), HeLa; format: cell-based, human; conditions: 48 h exposure, n = 3, mean ± SD
Excerpt: as §1

[6] = tested on: A549 (non-small cell lung); test: Antiproliferative SBR assay (NCI protocol), A549; format: cell-based, human; conditions: 48 h exposure, n = 3, mean ± SD
Excerpt: as §1

[7] = target: human CA IX (Homo sapiens, UniProt Q16790); test: Stopped-flow CO2 hydrase assay, CA IX; conditions: for Selectivity Ratio I/IX: Ki CA I / Ki CA IX; for Selectivity Ratio II/IX: Ki CA II / Ki CA IX
[8] = target: human CA XII (Homo sapiens, UniProt O43570); test: Stopped-flow CO2 hydrase assay, CA XII; conditions: for Selectivity Ratio I/XII: Ki CA I / Ki CA XII; for Selectivity Ratio II/XII: Ki CA II / Ki CA XII
human CA XII, sequence (O43570 25-354): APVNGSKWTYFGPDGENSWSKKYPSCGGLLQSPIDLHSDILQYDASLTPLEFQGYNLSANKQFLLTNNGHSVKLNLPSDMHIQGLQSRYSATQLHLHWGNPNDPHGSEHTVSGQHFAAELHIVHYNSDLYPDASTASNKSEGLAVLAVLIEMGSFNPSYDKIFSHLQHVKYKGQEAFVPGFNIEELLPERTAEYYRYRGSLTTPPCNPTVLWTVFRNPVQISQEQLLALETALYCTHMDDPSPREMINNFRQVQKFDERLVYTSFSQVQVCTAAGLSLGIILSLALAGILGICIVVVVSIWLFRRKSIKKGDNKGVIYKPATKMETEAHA

[9] = target: human CA I (Homo sapiens, UniProt P00915); test: Stopped-flow CO2 hydrase assay, CA I
human CA I, sequence (P00915 whole entry): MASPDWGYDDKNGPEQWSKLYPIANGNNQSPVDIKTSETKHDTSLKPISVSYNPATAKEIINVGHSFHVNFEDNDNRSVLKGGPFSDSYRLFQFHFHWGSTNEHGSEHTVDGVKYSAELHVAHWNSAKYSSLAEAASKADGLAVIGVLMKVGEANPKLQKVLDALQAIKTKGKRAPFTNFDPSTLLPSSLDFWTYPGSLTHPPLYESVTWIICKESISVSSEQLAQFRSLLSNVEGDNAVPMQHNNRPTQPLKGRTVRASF

[10] = target: human CA II (Homo sapiens, UniProt P00918); test: Stopped-flow CO2 hydrase assay, CA II

O=c1[nH]cc(F)c(=O)[nH]1 [5-Fluorouracil, reference compound]
GI50 ([1]; Homo sapiens, HBL-100): 4.4 ± 0.7 µM
GI50 ([2]; Homo sapiens, WiDr): 49 ± 7 µM
GI50 [3]: 3.3 ± 1.2 µM
GI50 ([4]; Homo sapiens, T47D): 43 ± 16 µM
GI50 ([5]; Homo sapiens, HeLa): 16 ± 5 µM
GI50 ([6]; Homo sapiens, A549): 2.2 ± 0.3 µM

[NH2][Pt]([NH2])([Cl])[Cl] [CDDP, cisplatin, reference compound]
GI50 [1]: 1.9 ± 0.2 µM
GI50 [2]: 26 ± 4 µM
GI50 [3]: 2.7 ± 0.4 µM
GI50 [4]: 17 ± 3 µM
GI50 [5]: 1.8 ± 0.5 µM
GI50 [6]: 4.9 ± 0.2 µM

NNC(=S)Nc1ccc(S(N)(=O)=O)cc1 [Compound 3a, 4-N-(4′-Sulfonamidophenyl)-3-thiosemicarbazide]
GI50 ([1]; Homo sapiens, HBL-100): > 100 µM
GI50 ([2]; Homo sapiens, WiDr): > 100 µM
GI50 [3]: > 100 µM
GI50 ([4]; Homo sapiens, T47D): > 100 µM
GI50 ([5]; Homo sapiens, HeLa): > 100 µM
GI50 ([6]; Homo sapiens, A549): > 100 µM

NNC(=S)Nc1cccc(S(N)(=O)=O)c1 [Compound 3b, 4-N-(3′-Sulfonamidophenyl)-3-thiosemicarbazide]
GI50 ([1]; Homo sapiens, HBL-100): > 100 µM
Ki [7]: 0.185 µM
Selectivity Ratio I/IX [7]: 7.9
Selectivity Ratio II/IX [7]: 2.4
GI50 ([2]; Homo sapiens, WiDr): > 100 µM
GI50 [3]: > 100 µM
GI50 ([4]; Homo sapiens, T47D): > 100 µM
GI50 ([5]; Homo sapiens, HeLa): > 100 µM
Ki [8]: 0.116 µM
Selectivity Ratio I/XII [8]: 12.6
Selectivity Ratio II/XII [8]: 3.8
Ki [9]: 1.46 µM
Ki [10]: 0.439 µM
GI50 ([6]; Homo sapiens, A549): > 100 µM

NNC(=S)NCCc1ccc(S(N)(=O)=O)cc1 [Compound 3c, 4-N-[2′-(4″-Sulfonamido)phenyl]ethyl-3-thiosemicarbazide]
GI50 ([1]; Homo sapiens, HBL-100): > 100 µM
Ki [7]: 0.013 µM
Selectivity Ratio I/IX [7]: 6.1
Selectivity Ratio II/IX [7]: 0.65
GI50 ([2]; Homo sapiens, WiDr): > 100 µM
GI50 [3]: > 100 µM
GI50 ([4]; Homo sapiens, T47D): > 100 µM
GI50 ([5]; Homo sapiens, HeLa): > 100 µM
Ki [8]: 0.00502 µM
Selectivity Ratio I/XII [8]: 15.7
Selectivity Ratio II/XII [8]: 1.7
Ki [9]: 0.079 µM
Ki [10]: 0.00851 µM
GI50 ([6]; Homo sapiens, A549): > 100 µM

COc1ccc(/C=N/NC(=S)Nc2ccc(S(N)(=O)=O)cc2)cc1 [Compound 4b, 1-(4′-Methoxyphenylmethylene)-4-(4″-sulfonamidophenyl)-3-thiosemicarbazone]
GI50 ([1]; Homo sapiens, HBL-100): > 100 µM
GI50 ([2]; Homo sapiens, WiDr): > 100 µM
GI50 [3]: > 100 µM
GI50 ([4]; Homo sapiens, T47D): > 100 µM
GI50 ([5]; Homo sapiens, HeLa): 64 ± 23 µM
GI50 ([6]; Homo sapiens, A549): > 100 µM

NS(=O)(=O)c1ccc(NC(=S)N/N=C/c2ccc(F)cc2)cc1 [Compound 4c, 1-(4′-Fluorophenylmethylene)-4-(4″-sulfonamidophenyl)-3-thiosemicarbazone]
GI50 ([1]; Homo sapiens, HBL-100): 28 ± 1 µM
GI50 ([2]; Homo sapiens, WiDr): 24 ± 4 µM
GI50 [3]: 6 ± 0.4 µM
GI50 ([4]; Homo sapiens, T47D): 17 ± 1 µM
GI50 ([5]; Homo sapiens, HeLa): 7.9 ± 1.1 µM
GI50 ([6]; Homo sapiens, A549): 25 ± 5 µM

NS(=O)(=O)c1ccc(NC(=S)N/N=C/c2ccc(Cl)cc2)cc1 [Compound 4d, 1-(4′-Chlorophenylmethylene)-4-(4″-sulfonamidophenyl)-3-thiosemicarbazone]
GI50 ([1]; Homo sapiens, HBL-100): > 100 µM
GI50 ([2]; Homo sapiens, WiDr): > 100 µM
GI50 [3]: > 100 µM
GI50 ([4]; Homo sapiens, T47D): > 100 µM
GI50 ([5]; Homo sapiens, HeLa): > 100 µM
GI50 ([6]; Homo sapiens, A549): > 100 µM

NS(=O)(=O)c1ccc(NC(=S)N/N=C/c2ccc(Br)cc2)cc1 [Compound 4e, 1-(4′-Bromophenylmethylene)-4-(4″-sulfonamidophenyl)-3-thiosemicarbazone]
GI50 ([1]; Homo sapiens, HBL-100): 24 ± 2 µM
GI50 ([2]; Homo sapiens, WiDr): 62 ± 12 µM
GI50 [3]: 22 ± 1 µM
GI50 ([4]; Homo sapiens, T47D): 36 ± 1 µM
GI50 ([5]; Homo sapiens, HeLa): 18 ± 1 µM
GI50 ([6]; Homo sapiens, A549): 23 ± 6 µM

NS(=O)(=O)c1ccc(NC(=S)N/N=C/c2ccc([N+](=O)[O-])cc2)cc1 [Compound 4f, 1-(4′-Nitrophenylmethylene)-4-(4″-sulfonamidophenyl)-3-thiosemicarbazone]
GI50 ([1]; Homo sapiens, HBL-100): > 100 µM
GI50 ([2]; Homo sapiens, WiDr): > 100 µM
GI50 [3]: > 100 µM
GI50 ([4]; Homo sapiens, T47D): > 100 µM
GI50 ([5]; Homo sapiens, HeLa): > 100 µM
GI50 ([6]; Homo sapiens, A549): > 100 µM

NS(=O)(=O)c1cccc(NC(=S)N/N=C/c2ccccc2)c1 [Compound 4g, 1-Phenylmethylene-4-(3″-sulfonamidophenyl)-3-thiosemicarbazone]
GI50 ([1]; Homo sapiens, HBL-100): > 100 µM
GI50 ([2]; Homo sapiens, WiDr): 62 ± 10 µM
GI50 [3]: 70 ± 1 µM
GI50 ([4]; Homo sapiens, T47D): 83 ± 10 µM
GI50 ([5]; Homo sapiens, HeLa): 61 ± 6 µM
GI50 ([6]; Homo sapiens, A549): 51 ± 10 µM

COc1ccc(/C=N/NC(=S)Nc2cccc(S(N)(=O)=O)c2)cc1 [Compound 4h, 1-(4′-Methoxyphenylmethylene)-4-(3″-sulfonamidophenyl)-3-thiosemicarbazone]
GI50 ([1]; Homo sapiens, HBL-100): > 100 µM
GI50 ([2]; Homo sapiens, WiDr): > 100 µM
GI50 [3]: > 100 µM
GI50 ([4]; Homo sapiens, T47D): > 100 µM
GI50 ([5]; Homo sapiens, HeLa): > 100 µM
GI50 ([6]; Homo sapiens, A549): > 100 µM

NS(=O)(=O)c1cccc(NC(=S)N/N=C/c2ccc(F)cc2)c1 [Compound 4i, 1-(4′-Fluorophenylmethylene)-4-(3″-sulfonamidophenyl)-3-thiosemicarbazone]
GI50 ([1]; Homo sapiens, HBL-100): > 100 µM
GI50 ([2]; Homo sapiens, WiDr): 79 ± 29 µM
GI50 [3]: > 100 µM
GI50 ([4]; Homo sapiens, T47D): > 100 µM
GI50 ([5]; Homo sapiens, HeLa): > 100 µM
GI50 ([6]; Homo sapiens, A549): 83 ± 16 µM

NS(=O)(=O)c1cccc(NC(=S)N/N=C/c2ccc(Cl)cc2)c1 [Compound 4j, 1-(4′-Chlorophenylmethylene)-4-(3″-sulfonamidophenyl)-3-thiosemicarbazone]
GI50 ([1]; Homo sapiens, HBL-100): 42 ± 15 µM
GI50 ([2]; Homo sapiens, WiDr): 24 ± 8 µM
GI50 [3]: 36 ± 4 µM
GI50 ([4]; Homo sapiens, T47D): 59 ± 16 µM
GI50 ([5]; Homo sapiens, HeLa): 38 ± 3 µM
GI50 ([6]; Homo sapiens, A549): 22 ± 4 µM

NS(=O)(=O)c1cccc(NC(=S)N/N=C/c2ccc(Br)cc2)c1 [Compound 4k, 1-(4′-Bromophenylmethylene)-4-(3″-sulfonamidophenyl)-3-thiosemicarbazone]
GI50 ([1]; Homo sapiens, HBL-100): 40 ± 1 µM
GI50 ([2]; Homo sapiens, WiDr): > 100 µM
GI50 [3]: 46 ± 1 µM
GI50 ([4]; Homo sapiens, T47D): > 100 µM
GI50 ([5]; Homo sapiens, HeLa): 45 ± 5 µM
GI50 ([6]; Homo sapiens, A549): 19 ± 6 µM

NS(=O)(=O)c1ccc(CCNC(=S)N/N=C/c2ccccc2)cc1 [Compound 4l, 1-Phenylmethylene-4-[2′-(4″-sulfonamido)phenyl]ethyl-3-thiosemicarbazone]
GI50 ([1]; Homo sapiens, HBL-100): > 100 µM
Ki [7]: 0.0308 µM
Selectivity Ratio I/IX [7]: 18.4
Selectivity Ratio II/IX [7]: 2.3
GI50 ([2]; Homo sapiens, WiDr): 90 ± 14 µM
GI50 [3]: 99 ± 1 µM
GI50 ([4]; Homo sapiens, T47D): > 100 µM
GI50 ([5]; Homo sapiens, HeLa): > 100 µM
Ki [8]: 0.00912 µM
Selectivity Ratio I/XII [8]: 62.3
Selectivity Ratio II/XII [8]: 7.7
Ki [9]: 0.568 µM
Ki [10]: 0.0702 µM
GI50 ([6]; Homo sapiens, A549): 90 ± 14 µM

COc1ccc(/C=N/NC(=S)NCCc2ccc(S(N)(=O)=O)cc2)cc1 [Compound 4m, 1-(4′-Methoxyphenylmethylene)-4-[2″-(4‴-sulfonamido)phenyl]ethyl-3-thiosemicarbazone]
GI50 ([1]; Homo sapiens, HBL-100): > 100 µM
Ki [7]: 0.164 µM
Selectivity Ratio I/IX [7]: 21.2
Selectivity Ratio II/IX [7]: 2.0
GI50 ([2]; Homo sapiens, WiDr): > 100 µM
GI50 [3]: > 100 µM
GI50 ([4]; Homo sapiens, T47D): > 100 µM
GI50 ([5]; Homo sapiens, HeLa): > 100 µM
Ki [8]: 0.035 µM
Selectivity Ratio I/XII [8]: 99.4
Selectivity Ratio II/XII [8]: 9.2
Ki [9]: 3.48 µM
Ki [10]: 0.321 µM
GI50 ([6]; Homo sapiens, A549): 97 ± 4 µM

NS(=O)(=O)c1ccc(CCNC(=S)N/N=C/c2ccc(F)cc2)cc1 [Compound 4n, 1-(4′-Fluorophenylmethylene)-4-[2″-(4‴-sulfonamido)phenyl]ethyl-3-thiosemicarbazone]
GI50 ([1]; Homo sapiens, HBL-100): > 100 µM
Ki [7]: 0.3 µM
Selectivity Ratio I/IX [7]: 8.3
Selectivity Ratio II/IX [7]: 2.0
GI50 ([2]; Homo sapiens, WiDr): > 100 µM
GI50 [3]: > 100 µM
GI50 ([4]; Homo sapiens, T47D): > 100 µM
GI50 ([5]; Homo sapiens, HeLa): > 100 µM
Ki [8]: 0.0485 µM
Selectivity Ratio I/XII [8]: 51.2
Selectivity Ratio II/XII [8]: 12.2
Ki [9]: 2.49 µM
Ki [10]: 0.59 µM
GI50 ([6]; Homo sapiens, A549): > 100 µM
